Consider four compounds from patent publication US9873695B2, “Serine derivatives as ghrelin receptor agonists” (RaQualia Pharma Inc., priority 2014, dated 2018).

One may read the EC50 as the concentration that produces a half-maximal response. Read a low EC50 as greater potency.

For the assay, the target named is T1, human ghrelin receptor (Homo sapiens, UniProt Q92847).
T1 construct: expressed in transfected cells
T1 sequence (Q92847 whole entry): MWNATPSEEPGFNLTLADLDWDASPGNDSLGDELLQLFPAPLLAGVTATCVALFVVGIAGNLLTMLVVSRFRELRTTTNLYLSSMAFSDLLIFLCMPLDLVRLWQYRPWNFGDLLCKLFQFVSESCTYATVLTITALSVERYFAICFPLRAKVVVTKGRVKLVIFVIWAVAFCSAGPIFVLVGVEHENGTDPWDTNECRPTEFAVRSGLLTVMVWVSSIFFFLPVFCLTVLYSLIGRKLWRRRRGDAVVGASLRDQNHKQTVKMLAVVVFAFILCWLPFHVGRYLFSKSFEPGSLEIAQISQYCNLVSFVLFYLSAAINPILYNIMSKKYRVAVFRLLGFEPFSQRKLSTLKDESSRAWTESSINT
The assay is described as follows: Ghrelin receptor agonistic activity induced Ca2+ influx in HEK293 cells stably expressing human ghrelin receptor. The settings on record: Ca2+ influx (Fluo-4, FDSS6000), 11-point dose-response. It counts as cell-based. As for the experimental part:
Measurement of the Ghrelin Receptor Agonistic Activity Induced Ca^2+ Influx in HEK293 Cells Stably Expressing Human Ghrelin Receptor
HEK293 cells stably expressing human ghrelin receptor were maintained in Dulbecco's modified Eagle medium (high glucose) supplemented with 10% fetal bovine serum, 100 units/ml penicillin, 100 microg/ml streptomycin and 500 microg/ml G418 at 37° C. in a humidified incubator with 5% CO2 and grown to 60-80% confluence. The day before the assay, the cells were seeded on poly-D-lysine coated 384-well plates (BD FALCON) at a density of 10,000 cells per well, and incubated overnight in incubator.
On the day of the assay, the cells were washed three times with assay buffer (Hanks' balanced salt solution with 20 mM HEPES, pH7.4), and were incubated for 1 hour at room temperature to load 0.5 microM Fluo-4 AM reagent (Invitrogen).
After removing Fluo-4, and washing with assay buffer, the cells were added with various concentrations of the compounds. The changes in intracellular calcium concentration were monitored with the fluorescence imaging plate reader, FDSS6000 (Hamamatsu Photonics).
The EC50 values for compounds of the present invention were determined from 11-point dose-response studies. Curves were generated using the average of duplicate wells for each data point. Finally, the EC50 values were calculated using the best-fit dose curve determined by XLfit (ID Business Solutions Ltd).
With `CN1N=C2CCN(C(=O)[C@@H](COc3cc(C(F)(F)F)cc(C(F)(F)F)c3)NC(=O)C(C)(C)N)C[C@@]2(Cc2ccccc2)C1=O` [Example 9, 2-amino-N—((R)-1-((R)-3a-benzyl-2-methyl-3-oxo-3a,4,6,7-tetrahydro-2H-pyrazolo[4,3-c]pyridin-5(3H)-yl)-3-(3,5-bis(trifluoromethyl)phenoxy)-1-oxopropan-2-yl)-2-methylpropanamide], the EC50 is less than 10 nM.

The compound `CN1N=C2CCN(C(=O)[C@@H](COc3ccccn3)NC(=O)C(C)(C)N)C[C@@]2(Cc2ccccc2)C1=O` [Example 17, 2-amino-N—((R)-1-((R)-3a-benzyl-2-methyl-3-oxo-3a,4,6,7-tetrahydro-2H-pyrazolo[4,3-c]pyridin-5(3H)-yl)-1-oxo-3-(pyridin-2-yloxy)propan-2-yl)-2-methylpropanamide] returned an EC50 of less than 10 nM.

Turning to `CN1N=C2CCN(C(=O)[C@@H](COc3cncc(F)c3)NC(=O)C(C)(C)N)C[C@@]2(Cc2ccccc2)C1=O` [Example 18, 2-amino-N—((R)-1-((R)-3a-benzyl-2-methyl-3-oxo-3a,4,6,7-tetrahydro-2H-pyrazolo[4,3-c]pyridin-5(3H)-yl)-3-((5-fluoropyridin-3-yl)oxy)-1-oxopropan-2-yl)-2-methylpropanamide], the EC50 is less than 10 nM.

For `CN1N=C2CCN(C(=O)[C@@H](COc3ccc(C#N)cc3)NC(=O)C(C)(C)N)C[C@@]2(Cc2ccccc2)C1=O` [Example 20, 2-amino-N—((R)-1-((R)-3a-benzyl-2-methyl-3-oxo-3a,4,6,7-tetrahydro-2H-pyrazolo[4,3-c]pyridin-5(3H)-yl)-3-(4-cyanophenoxy)-1-oxopropan-2-yl)-2-methylpropanamide], the EC50 is less than 10 nM.
